Results on 38 molecules are retold here after US20070079447A1, “Insect repellent textile” (Beiersdorf AG, priority 2003, published 2007).

The nature of data set [1]: Polarity: interfacial tension toward water.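 Note: polarity expressed as oil–water interfacial tension in mN/m, lower values meaning a more polar oil, with medium-polar lipids falling between 20 and 30 mN/m.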 Format: physicochemical.
Description: For the purposes of the present invention, lipids are regarded as being polar if their interfacial tension toward water is less than 20 mN/m, and as nonpolar if their interfacial tension toward water is more than 30 mN/m. Lipids with an interfacial tension toward water between 20 and 30 mN/m are generally referred to as medium-polar.
Another data set concerns insects. As to conditions: cited from earlier work; for Effectiveness (literature and manufacturer details): pests repelled, table of further repellents.

In the case of `CCCCCCCCCCCCCCCCCCOC(=O)CCCCCC` [Tegosoft SH, Stearyl Heptanoate], the Polarity in data set [1] (polar lipids) is recorded as 17.8 mN/m.

In data set [1] (medium-polar lipids), `CCCCC(CC)C(=O)OCCC(C)CC(C)(C)C` (stereo not drawn) [Dermol 98, 2-Ethylhexanoic acid 3,5,5-Trimethyl ester] returned a Polarity of 26.2 mN/m.

`CCCCCCCCCCCCCC(=O)OCC(CCCCCCCC)CCCCCCCCCC` (stereo not drawn) [M.O.D., Octyldodecyl Myristate] returned a Polarity in data set [1] (medium-polar lipids) of 22.1 mN/m.

Take `CCN(CC)C(=O)c1cccc(C)c1` [DEET, N,N-diethyl-3-methylbenzamide]: the “effective against (pests repelled)” value in the data set with insects was “mosquitoes, horse-flies, sand-flies, ticks, biting flies, mites, fleas and bugs”.

Turning to `CCCCCCCCCCCCCCCC(=O)OCCCCCCCC` [Cegesoft C24, Octyl Palmitate], the Polarity in data set [1] (medium-polar lipids) came out at 23.1 mN/m.

Molecule `CCCCCCCC(=O)OCC(COC(=O)CCCCCCC)OC(=O)CCCCCCC` [Trivent OCG, Tricaprylin] showed a Polarity in data set [1] (medium-polar lipids) of 20.2 mN/m.

As to `CCCCCCCCCCCCCC(C)C` [Solvent ICH, Isohexadecane], the Polarity in data set [1] (nonpolar lipids) was found to be 43.8 mN/m.

On to `CCCCOC(=O)CCCCC(=O)OCCCC` [Cetiol B, Dibutyl Adipate], for which the Polarity in data set [1] (polar lipids) turned out to be 14.3 mN/m.

In turn, `CCCCCCCCOC(=O)CCCCCCCCCCCCCCC(C)C` [Prisorine 2036, Octyl Isostearate] showed a Polarity in data set [1] (nonpolar lipids) of 31.6 mN/m.

With `CCCCCCCC(=O)OCCCCCCCC(C)C` [Dermol 108, Isodecyl Octanoate], the Polarity in data set [1] (medium-polar lipids) came to 29.6 mN/m.

Regarding `CCCCCCCCCCC(CO)CCCCCCCC` (stereo not drawn) [Eutanol G, Octyldodecanol], the Polarity in data set [1] (medium-polar lipids) stood at 24.8 mN/m.

Take `COC(=O)C1C2C=CC(C2)C1C(=O)OC` (stereo not drawn) [Dimethyl carbate]: the “Effectiveness (literature and manufacturer details)” value (shortened to “Effectiveness”) in the data set on insects is on record as “mosquitoes, in particular of the Aedes species^1”.

In the case of `COC(=O)c1ccccc1C(=O)OC` [Dimethyl phthalate], the “effective against (pests repelled)” value with insects was “mosquitoes (in particular Aedes and Anopheles species)”.

With `CCCCCCCC(=O)OC(=O)CCCCCCC` [Cetiol OE, Dicaprylyl Ether], the Polarity in data set [1] (nonpolar lipids) came out at 30.9 mN/m.

The molecule `CCCCCCCCCC(=O)OCCCC(C)C` [Dermol IHD, Isohexyl decanoate] registered a Polarity in data set [1] (medium-polar lipids) of 29.7 mN/m.

Regarding `CCCCN(CCC(=O)OCC)C(C)=O` [Repellent 3535, ethyl 3-(N-n-butyl-N-acetylamino)propionate], the “effective against (pests repelled)” value in the data set on insects was “mosquitoes (Aedes aegypti, Anopheles albimanus), tsetse flies (Glossinae) and horse-flies (Tabanidae)”.

`CC(C)CCCCCCCOC(=O)CC(C)CC(C)(C)C` (stereo not drawn) [Dermol 109, Isodecyl 3,5,5 Trimethyl Hexanoate] displayed a Polarity in data set [1] (medium-polar lipids) of 29.1 mN/m.

With `CCCC(O)C(CC)CO` (stereo not drawn) [2-Ethylhexane-1,3-diol], the “Effectiveness” value in the data set with insects is recorded as “mosquitoes, horse-flies, flies, fleas, mites^1”.

The molecule `CCCCCCCCCCCCCCCCCC(=O)OC(C)C` [Isopropyl stearate, Isopropyl Stearate] yielded a Polarity in data set [1] (medium-polar lipids) of 21.9 mN/m.

In data set [1] (medium-polar lipids), `CCCCCCOCCCCCC` [Dihexyl Ether] had a Polarity of 29.2 mN/m.

As for `CCCCC(CC)CN1C(=O)C2C3C=CC(C3)C2C1=O` (stereo not drawn) [N-Octylbicycloheptenedicarboximide], the “Effectiveness” value in the data set with insects is “synergist^2”.

For `CC(CCOC(=O)CC(C)CC(C)(C)C)CC(C)(C)C` (stereo not drawn) [Dermol 99, Trimethylhexyl Isononanoate], the Polarity in data set [1] (nonpolar lipids) came out at 31.1 mN/m.

On to `CCCCOCCOCCOCc1cc2c(cc1CCC)OCO2` [Piperonyl butoxide], for which, in the data set with insects, the “Effectiveness” value is given as “synergist^2”.

On to `CCCCCCCC/C=C\CCCCCCCC(=O)OCCOCCOCC` [Softcutol O, Ethoxydiglycol Oleate], for which the Polarity in data set [1] (nonpolar lipids) is recorded as 40.5 mN/m.

In data set [1] (nonpolar lipids), `CCCCCCCCCCCCCCCCCC(C)C` [Isoeicosane] came in with a Polarity of 41.9 mN/m.

For the molecule `O=CC12CC=CCC1C1CC=CCC1O2` (stereo not drawn) [2,3;4,5-bis(2-Butylene)tetrahydro-2-furaldehyde], the “Effectiveness” value in the data set with insects was “cockroaches and biting insects^1”.

With `CCCCCCC(CCCC)C(=O)O` (stereo not drawn) [Isocarb 12, Butyl Octanoic acid], the Polarity in data set [1] (medium-polar lipids) came to 22.1 mN/m.

The molecule PEG 2 Diethylene hexanoate [Dermol 488] returned a Polarity in data set [1] (polar lipids) of 10.1 mN/m.

Take `CCCCCCOC(=O)OCCCCCC` [Dihexyl carbonate, Dihexyl Carbonate]: the Polarity in data set [1] (nonpolar lipids) is on record as 30.9 mN/m.

In the case of `CCCCCCCC(=O)N(CC)CC` [N,N-Diethyl caprylamide], in the data set with insects, the “Effectiveness” value is on record as “cockroaches, mosquitoes, house files, horse-flies, ants, arachnids”.

Take `CCCCC(CC)COC(=O)CCCCCC(C)C` (stereo not drawn) [Dermol 89, 2-Ethylhexyl Isononanoate]: in data set [1] (nonpolar lipids), the Polarity stood at 31.0 mN/m.

“Isotridecyl 3,5,5 Trimethylhexanonanoate [Dermol 139]” came in with a Polarity in data set [1] (medium-polar lipids) of 24.5 mN/m.

For the molecule Isocetyl Palmitate [Tegosoft HP], in data set [1] (nonpolar lipids), the Polarity came to 36.2 mN/m.

`CC(C)CCCCCCCOC(=O)C(C)(C)C` [DUB VCI 10, Isodecyl Neopentanoate]: the Polarity in data set [1] (medium-polar lipids) is on record as 29.9 mN/m.

Consider `O1[SiH2]O[SiH2]O[SiH2]O[SiH2]O[SiH2]1` (stereo not drawn) [Dow Corning Fluid 245, Cyclopentasiloxane], for which the Polarity in data set [1] (nonpolar lipids) and in data set [1] (silicone oils) was 32.3 mN/m each time.

For the molecule `CC(C)CCCCCCCCCCCCCCC(=O)O.CC(O)CO` [Emerest 2384, Propylene Glycol Monoisostearate], the Polarity in data set [1] (polar lipids) amounted to 6.2 mN/m.

In data set [1] (polar lipids), Triisostearin [Prisorine 2041 GTIS] registered a Polarity of 2.4 mN/m.

On to Dioctylcyclohexane [Cetiol S], for which the Polarity in data set [1] (nonpolar lipids) was found to be 39.0 mN/m.
